One compound from patent US20190374554A1, “USE OF OXYGENATED CHOLESTEROL SULFATES (OCS) TO TREAT INFLAMMATORY SKIN DISEASE AND SKIN LESIONS” (Virginia Commonwealth University, priority 2016, published 2019) can be followed below.

Data set [1] has as its system IMQ-induced psoriasis-like back skin and ear lesions. The data set can be described thus: Imiquimod (IMQ)-induced psoriasis mouse model, skin scoring (erythema, scaling, thickness). It counts as in vivo, Balb/C mice. The conditions noted are these: mice; intradermal injection into back lesion Days 1 and 4; vs vehicle (FIG. 2). The procedure:
The subjects for the study were 40 male Balb/C mice (18-22 g). […] The backs of all mice were shaved for an area of 1.5 cm×2 cm.
Formulation A was a clear solution of 25 HC3S sodium salt (30 mg/mL) in a solution vehicle (250 mg/mL hydroxypropyl betadex (beta cyclodextrin, 2-hydroxypropyl ether, a partially substituted poly(hydroxypropyl) ether of beta cyclodextrin) and 10 mM sodium phosphate buffer in sterile water). Vehicle was stored at 2-8° C. storage and placed at room temperature for 30 min. prior to mixing with powdered 25HC3S just prior to use. Dissolution of the 25HC3S in Vehicle A was rapid and appeared to be complete upon mixing.
Formulation B was a milky suspension of 25HC3S sodium salt (25 mg/mL) in a suspension vehicle (30 mg/mL polyethylene glycol 3350, 3 mg/mL polysorbate 80, 7.5 mg/mL NaCl, and 10 mM sodium phosphate buffer in sterile water). The 25HC3S was milled using a Fluid Energy Model 00 Jet-O-Mizer™ to approximately a 5 microns average particle size (measured by a Malvern Mastersizer 2000 equipped with a hydro 2000S dispersion cell) prior to addition to the vehicle. […]
Mice were monitored for signs of distress and daily photos of the back lesions were taken. Erythema, scaling, and thickness of the back skin was scored daily on a scale from 0 to 4 by an independent scorer (blind), where 0=none; 1=slight; 2=moderate; 3=marked; and 4=very marked. […]

Data set [2] has as its system Hannover Wistar rats. Kind of data set: Two-week subcutaneous (SC) injection study in rats. In kind it is in vivo. How it is done: In a separate study, Hannover Wistar rats (n=12/sex/dose group) received daily SC injections of a solution of 30 mg/mL of 25HC3S sodium salt in vehicle (250 mg/mL hydroxypropyl-β-cyclodextrin in 10 mM sodium phosphate buffer in sterile water) for 2 weeks. Dose levels of 0 (vehicle), 15, 45 and 150 mg/kg of 25HC3S sodium salt were administered in dose volumes of 5.0, 0.5, 1.5 and 5.0 mL/kg. Following 14 days of dose administration, all rats were euthanized and necropsied

Data set [3] relates to Hannover Wistar rats. The data set can be described thus: Acute single dose intramuscular (IM) injection study in rats. In kind it is in vivo. Particulars: minimal to moderate, drug-treated vs vehicle. How it is done:
For the acute single dose study, Hannover Wistar rats (n=5/sex/dose group) received a single IM injection followed by 2 and 14 day observation periods. The solution that was tested included 30 mg/mL of 25HC3S sodium salt in vehicle (250 mg/mL hydroxypropyl-β-cyclodextrin in 10 mM sodium phosphate buffer in sterile water). Dose levels of 0 (vehicle), 3, 10 and 30 mg/kg of 25HC3S sodium salt were administered in dose volumes of 1.0, 0.1, 0.3 and 1.0 mL/kg. […] The changes were less severe (minimal only) after 14 days, indicating partial recovery; no clear effect of the presence of 25HC3S or vehicle volume was observed.

With `C[C@H](CCCC(C)(C)O)[C@H]1CC[C@H]2[C@@H]3CC=C4C[C@@H](OS(=O)(=O)[O-])CC[C@]4(C)[C@H]3CC[C@]12C.[Na+]` [Formulation 25HC3S, 5-cholesten-3, 25-diol, 3-sulfate], the “erythema (redness) of the back skin” value in data set [1] is given as “promotes reduction in erythema”. Also, the “higher mean liver weights compared to controls” value in the data set on Hannover Wistar rats [2] (male and female rats, 150 mg/kg daily SC, 2 weeks) turned out to be 10%. The “lower mean serum cholesterol compared to vehicle controls” value in the data set on Hannover Wistar rats [2] (male rats, 150 mg/kg daily SC, after 2 weeks) was 22%. Also, the “Cytoplasmic vacuolation of the proximal tubules of the kidneys” value with Hannover Wistar rats [2] (rats, 150 mg/kg daily SC, 2 weeks, vs vehicle controls) was “severity was similar in vehicle control and rats”. For the same compound, the “collagen degeneration and hemorrhage at the injection sites” value in the data set with Hannover Wistar rats [2] (rats, daily SC 2 weeks, compared to vehicle (FIG. 1A)) is recorded as “tended to be lower”. Also, in the data set on Hannover Wistar rats [2] (rats, daily SC 2 weeks, seen in vehicle controls and drug-treated rats), the “alveolar macrophages in the lungs” value is recorded as “minimal increase”. For the same compound, the “muscle degeneration/regeneration, hemorrhage and inflammation in injected muscles” value in the data set with Hannover Wistar rats [3] is “incidence and severity similar in vehicle and drug-treated rats”.
